From patent publication US9540325B2, “N1-cyclic amine-N5-substituted phenyl biguanide derivatives, methods of preparing the same and pharmaceutical composition comprising the same” (Immunomet Therapeutics, Inc., priority 2011, dated 2017)
Where a name gives a salt, the structure may show the parent alone.

Tests used:
[1] = tested on: AMPKα; experiment: Measurement of AMPK activation effect (AMPKα Thr172 phosphorylation immunoassay) in MCF7 cells; assay type: cell-based, human; conditions: 24 hours; for AMPK activation effect at 10 μM (%) / AMPK activation effect at 50 μM (%): relative to untreated cells; for AMPK activation effect AC150: concentration at which AMPK activation reached 150%
Summary of the method: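 MCF7 cells in DMEM/10% FBS were treated 24 h with derivatives at 5, 10 and 50 μM (metformin hydrochloride control, 0.05–10 mM). AMPKα Thr172 phosphorylation was measured by immunoassay on 20 μg lysate. AC150 (concentration giving 150% activation) came from concentration–response curves, with activation also reported at fixed concentrations.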

[2] = tested on: HCT116 cells; experiment: Measurement of effect of inhibiting cancer cell proliferation (MTT); assay type: cell-based, human; conditions: for inhibition at 100 µM: HCT-116, 100 μM, read-out: Cell Growth Inhibition (%) at 100 μM
Summary of the method: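 HCT116 cells (~5,000/well, DMEM with 10% FBS) treated 48 h with compound at 0.39–100 μM, metformin hydrochloride control at 0.1–25 mM. Viability by MTT (3 h, formazan in DMSO, A560) relative to untreated wells; GIC50 from the viability curve, also viability at 100 μM.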

[3] = Solubility in water of hydrochloride and acetate salts; assay type: physicochemical; conditions: room temperature
Description: The solubilities in water of the hydrochlorides prepared in Examples 26, 27, 32, 33, 48, 49, 53 and 54, and the solubilities in water of the acetates prepared in Examples 70 to 77, were compared.
The experimental conditions and methods are described, as follows.
1) 1 ml of distilled water is added to a container including 5 mg of salt at room temperature.
2) The resulting mixture is stirred for 10 minutes, and then kept at room temperature for 1 hour.
3) Undissolved residual salt is recovered and weighed.
4) The ratio of the amount of the recovered salt and the amount of the dissolved salt is calculated.
5) Operations 1) to 4) are repeatedly performed with increasing amount (i.e., 10, 15, 20, 25 and 30 mg) of salt.
The experimental procedures were performed for each of the hydrochlorides of Examples 26, 27, 32, 33, 48, 49, 53 and 54 and the acetates of Examples 70 to 77. The comparative solubilities obtained using the hydrochlorides of Examples 26, 27, 32, 33, 48, 49, 53 and 54 and the acetates of Examples 70 to 77 are listed in the following Table 1.

[4] = tested on: Snail; experiment: EMT inhibitory effect by inhibition of Snail expression (immunoblotting) in MCF7 cells; assay type: cell-based, human; conditions: MCF7, 48 hours, untreated control = 100%
Description: Cells undergoing EMT owing to various cytokines and growth factors can acquire motility and thus move a distance to form tumors in new tissues. Therefore, the metastasis of cancer cells can be inhibited by controlling expression of EMT-related transcription factors to hinder EMT. Based on these facts, the activities of biguanide derivatives that inhibit Snail expression, which is a transcription factor inducing EMT in the MCF7 cell line derived from human breast cancer, were measured and simple experimental methods are described, as follows.
MCF7 cells derived from human breast cancer (commercially available from Korean Cell Line Bank) were cultured in a DMEM medium supplemented with 10% (v/v) fetal bovine serum (commercially available from Gibco Life Technologies (US)), put into a 6-well plate so that the number of cultured cells could amount to approximately 5×10^5 cells per well, and then incubated in an incubator supplied with 5% CO2 (culture temperature: 37° C., pH: 7.0 to 7.4). The culture media were treated with phenformin hydrochloride and the compounds synthesized in the examples at contents of 1 μM and 10 μM, respectively, and then incubated for 48 hours. Metformin hydrochloride was used as the control, and the cells were treated with 1 mM and 10 mM metformin hydrochloride. After 48 hours, the cells were lysed in a cell lysis buffer containing 10 mM Tris HCl (pH7.4), 100 mM NaCl, 1 mM EDTA, 1 mM EGTA, 1 mM NaF, 20 mM Na4P2O7, 2 mM Na3VO4, 1% TritonX-100, 10% glycerol, 0.5% deoxycholate and 1 mM PMSF. Then, 25 μg of the cell lysate was electrophoresized in an SDS-PAGE gel, and then transferred to a […] membrane (commercially available from Amersham Life Science). The membrane reacted with rat monoclonal anti-human Snail (commercially available from Cell signaling Technology) or mouse monoclonal anti-β-actin (commercially available from Santa cruz Biotechnology), and unbound antibodies were removed. In this case, anti-β-actin was used as the antibody to ensure that the amount of proteins loaded into the SDS-PAGE gel is identical. The membrane was reacted again with a secondary antibody, anti-rat IgG (commercially available from Cell signaling Technology) or anti-mouse IgG (commercially available from Santa Cruz Biotechnology). Finally, the antibody bound to the membrane was detected using an ECL Plus system (commercially available from Amersham Life Science). Also, the expression level of Snail with respect to β-actin was analyzed using a Scion image analysis program. Here, when it was assumed that the expression level of the untreated control was 100%, the expression level of the Snail by treatment with the compounds synthesized in the examples was indicated as a percentage (%).

[5] = content 5 mg/1 ml distilled water
[6] = content 10 mg/1 ml distilled water
[7] = content 15 mg/1 ml distilled water
[8] = content 20 mg/1 ml distilled water
[9] = content 25 mg/1 ml distilled water
[10] = content 30 mg/1 ml distilled water

Compound | GI50 ([2]; Homo sapiens, HCT-116, 48 h) [µM] | Solubility in water (%), hydrochloride salt [3, 5] [%] | melting point [°C] | GI50 ([2]; 48 hours) [µM] | Solubility in water (%), acetate salt [3, 5] [%] | Solubility in water (%), acetate salt [3, 6] [%] | Solubility in water (%), acetate salt [3, 7] [%] | Solubility in water (%), acetate salt [3, 8] [%] | Solubility in water (%), acetate salt [3, 9] [%] | Solubility in water (%), acetate salt [3, 10] [%] | AMPK activation effect at 10 μM (%) [1] [%] | AMPK activation effect at 50 μM (%) [1] [%] | AMPK activation effect AC150 [1] [µM] | inhibition at 100 µM ([2]; Homo sapiens, 48 hours) [%] | Snail Expression Rate (%) ([4]; 1 mM) | Snail Expression Rate (%) ([4]; 10 mM)
Cl.N=C(NC(=N)N1CCCC1)Nc1ccc(OC(F)(F)F)cc1 [Example 32, N1-pyrrolidine-N5-(4-trifluoromethoxy)phenyl biguanide hydrochloride] | 23.6 | 50 |  |  |  |  |  |  |  |  | 204 | 680 | 5.1 | 97.6 |  | 
Cl.N=C(NC(=N)N1CCCCC1)Nc1ccc(OC(F)(F)F)cc1 [Example 33, N1-piperidine-N5-(4-trifluoromethoxy)phenyl biguanide hydrochloride] | 7.9 | 50 | 277.3 |  |  |  |  |  |  |  | 538 |  | 1.4 | 97.9 |  | 
Cl.N=C(NC(=N)N1CCCC1)Nc1ccc(OC(F)(F)F)c(F)c1 [Example 53, N1-pyrrolidine-N5-(3-fluoro-4-trifluoromethoxy)phenyl biguanide hydrochloride] | 7.6 | 20 | 278 to 279 |  |  |  |  |  |  |  | 315 |  | 5.0 | 101 |  | 
N=C(NC(=N)N1CCCC1)Nc1ccc(C(F)(F)F)c(F)c1 [Example 74, N1-pyrrolidine-N5-(3-fluoro-4-trifluoromethyl)phenyl biguanide acetate] |  |  |  |  | 100 | 100 | 100 | 50 |  |  | 461 |  | 3.4 |  |  | 
N=C(NC(=N)N1CCCC1)Nc1ccc(OC(F)(F)F)c(F)c1 [Example 76, N1-pyrrolidine-N5-(3-fluoro-4-trifluoromethoxy)phenyl biguanide acetate] |  |  |  |  | 100 | 100 | 70 |  |  |  | 341 |  | 1.3 |  |  | 
CN(C)C(=N)N=C(N)N [Metformin hydrochloride, reference compound] |  |  |  |  |  |  |  |  |  |  |  | 130.0 | 188.3 | 1.8 | 70.3 | 13.6

Second part, led by results:

GI50 ([2]; Homo sapiens, HCT-116, 48 h) [µM] | Solubility in water (%), hydrochloride salt [3, 5] [%] | melting point [°C] | GI50 ([2]; 48 hours) [µM] | Solubility in water (%), acetate salt [3, 5] [%] | Solubility in water (%), acetate salt [3, 6] [%] | Solubility in water (%), acetate salt [3, 7] [%] | Solubility in water (%), acetate salt [3, 8] [%] | Solubility in water (%), acetate salt [3, 9] [%] | Solubility in water (%), acetate salt [3, 10] [%] | Compound | AMPK activation effect at 10 μM (%) [1] [%] | AMPK activation effect at 50 μM (%) [1] [%] | AMPK activation effect AC150 [1] [µM] | inhibition at 100 µM ([2]; Homo sapiens, 48 hours) [%] | Snail Expression Rate (%) ([4]; 1 mM) | Snail Expression Rate (%) ([4]; 10 mM)
9.3 | 80 | 253 to 254 |  |  |  |  |  |  |  | Cl.N=C(NC(=N)N1CCCC1)Nc1ccc(C(F)(F)F)c(F)c1 [Example 48, N1-pyrrolidine-N5-(3-fluoro-4-trifluoromethyl)phenyl biguanide hydrochloride] | 299 |  | 2.5 | 101 |  | 
5.2 | 20 | 263 to 264 |  |  |  |  |  |  |  | Cl.N=C(NC(=N)N1CCCCC1)Nc1ccc(C(F)(F)F)c(F)c1 [Example 49, N1-piperidine-N5-(3-fluoro-4-trifluoromethyl)phenyl biguanide hydrochloride] | 258 |  | 2.7 | 96.5 |  | 
4.5 | 20 | 262 to 263 |  |  |  |  |  |  |  | Cl.N=C(NC(=N)N1CCCCC1)Nc1ccc(OC(F)(F)F)c(F)c1 [Example 54, N1-piperidine-N5-(3-fluoro-4-trifluoromethoxy)phenyl biguanide hydrochloride] | 400 |  | 0.5 | 96.4 |  | 
 |  |  | 5.2 | 100 | 100 | 100 | 100 | 100 | 50 | N=C(NC(=N)N1CCCC1)Nc1ccc(C(F)(F)F)cc1 [Example 70, N1-pyrrolidine-N5-(4-trifluoromethyl)phenyl biguanide acetate] | 554 |  | 2.0 |  |  | 
 |  |  |  | 100 | 100 | 100 | 100 | 100 | 50 | N=C(NC(=N)N1CCCC1)Nc1ccc(OC(F)(F)F)cc1 [Example 72, N1-pyrrolidine-N5-(4-trifluoromethoxy)phenyl biguanide acetate] | 186 | 938 | 4.6 |  |  | 
 |  |  |  | 100 | 100 | 100 | 20 |  |  | N=C(NC(=N)N1CCCCC1)Nc1ccc(OC(F)(F)F)cc1 [Example 73, N1-piperidine-N5-(4-trifluoromethoxy)phenyl biguanide acetate] | 270 | 747 | 0.3 |  |  | 
 |  |  |  | 70 |  |  |  |  |  | N=C(NC(=N)N1CCCCC1)Nc1ccc(C(F)(F)F)c(F)c1 [Example 75, N1-piperidine-N5-(3-fluoro-4-trifluoromethyl)phenyl biguanide acetate] | 710 |  | 2.0 |  |  | 
